Test results: PubChem BioAssay (NCI)
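96-well plates; 48 h exposure; 5 concentrations. Endpoints by linear interpolation between flanking doses. Not reached: highest tested concentration assigned. At the GI50, growth is halved. TGI marks complete inhibition of growth.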

Assays:
Assay in all cases: NCI anticancer screen, dose series, 48 h
NCI-H522 lung = test system: NCI-H522 lung
TK-10 renal = test system: TK-10 renal
SF-295 CNS = test system: SF-295 CNS
UACC-62 melanoma = test system: UACC-62 melanoma
SF-539 CNS = test system: SF-539 CNS
MOLT-4 leukemia = test system: MOLT-4 leukemia
HCC-2998 colon = test system: HCC-2998 colon
A498 renal = test system: A498 renal
PC-3 prostate = test system: PC-3 prostate
NCI/ADR-RES ovarian = test system: NCI/ADR-RES ovarian

SMILES | TGI (NCI-H522 lung) [µM] | TGI (TK-10 renal) [µM] | TGI (SF-295 CNS) [µM] | TGI (UACC-62 melanoma) [µM] | TGI (SF-539 CNS) [µM] | TGI (MOLT-4 leukemia) [µM] | TGI (HCC-2998 colon) [µM] | TGI (A498 renal) [µM] | TGI (PC-3 prostate) [µM] | TGI (NCI/ADR-RES ovarian) [µM] | GI50 (NCI-H522 lung) [µM] | GI50 (PC-3 prostate) [µM] | GI50 (TK-10 renal) [µM] | GI50 (SF-295 CNS) [µM] | GI50 (UACC-62 melanoma) [µM] | GI50 (SF-539 CNS) [µM] | GI50 (A498 renal) [µM] | GI50 (NCI/ADR-RES ovarian) [µM] | GI50 (MOLT-4 leukemia) [µM] | GI50 (HCC-2998 colon) [µM]
CCOC(=O)[C@H]1Nc2ccc(Cl)cc2[C@H]2c3ccccc3O[C@H]21 | > 100 | > 100 | > 100 | > 100 | > 100 | > 100 | > 100 |  |  |  |  |  |  |  |  |  |  |  |  | 
Cc1cc2c(cc1Br)C1(C)CCC(C)C1(C)O2 (stereo not given) |  | > 100 | 54.6 | > 100 | > 100 | 35.6 | > 100 | > 100 |  |  |  |  |  |  |  |  |  |  |  | 
CCOC(=O)C(=O)Nc1ccc(Cl)c(C(F)(F)F)c1 | > 100 | > 100 | > 100 | > 100 | > 100 | > 100 | > 100 |  |  |  |  |  |  |  |  |  |  |  |  | 
c1cncc(CNc2ncn[nH]2)c1 | > 100 | > 100 | > 100 | > 100 | > 100 | > 100 |  | > 100 | > 100 | > 100 |  |  |  |  |  |  |  |  |  | 
NC(=O)c1c2c(cc3c(=O)c4ccccc4[nH]c13)CCCC2 | > 100 | > 100 | > 100 | > 100 | > 100 | > 80.7 | > 100 | > 100 |  |  |  |  |  |  |  |  |  |  |  | 
CC1CC2(CCC1OCc1ccccc1)OCCO2 (stereo not given) | > 100 | > 100 | > 100 | > 100 | > 100 | > 100 | > 100 | > 100 |  |  |  |  |  |  |  |  |  |  |  | 
COc1ccc(C(O)/C(=C/n2ccnc2)c2ccccc2)cc1OC (stereo not given) |  | > 100 | > 100 | > 100 | > 100 | > 100 | > 100 | > 100 |  |  |  |  |  |  |  |  |  |  |  | 
NC1=NC(c2ccc(F)cc2)C2=C(N1)c1ccc3ccccc3c1OCC2 (stereo not given) | > 100 | > 100 | 48.4 | 30.9 | 2.45 |  |  | > 100 | > 100 | > 100 | > 100 | > 100 | 14.5 | 3.47 | 3.14 | 0.343 | 10.8 | 43.2 |  | 
Cc1ccc2[nH]c(C(=O)NN3C(=O)C(C)SC34CCCCC4C)c(-c3ccccc3)c2c1 (stereo not given) | 16.7 | 35.6 | 35.5 | 28.3 | 44.9 | 41 | 35.5 | 32 | 37.6 |  | 2.4 | 15.3 | 19.1 | 17.8 | 13.4 | 22.3 | 15 |  | 12.2 | 19.5
NC(=O)NCCSC1CCCCC1O (stereo not given) | > 100 | > 100 | > 100 | > 100 | > 100 | 78 |  | > 100 | > 100 | > 100 |  |  |  |  |  |  |  |  |  | 
COc1cc2c3c(n(C)c(=O)c2cc1OC)-c1cc2c(cc1/C3=C/[C@H](N)CCCCN)OCO2 | 5.85 | 21.5 | 3.31 | 6.33 | 4.62 | > 100 |  | 22.7 | 27.5 | > 27.1 | 0.665 | 2 | 3.95 | 0.401 | 1.28 | 0.742 | 4.72 | 5.19 |  | 
Cc1ccc(F)cc1NC(=O)c1cc(Cl)ccc1Nc1ccccc1 | > 100 | > 100 | > 100 | > 100 | > 100 | > 100 | > 100 |  | > 100 | > 100 | > 100 | > 100 | > 100 | 56 | > 100 | 40.7 |  | > 100 | 37.9 | > 100
C=CCN(CC=C)CC(C(C)=O)C(c1ccccc1)c1c(O)c2ccccc2oc1=O (stereo not given) | > 100 | > 100 | 95.8 | > 100 | > 100 | > 100 | > 100 | > 100 |  |  |  |  |  |  |  |  |  |  |  | 
N#C[C@H]1Nc2ccccc2[C@@H](O)C1O (stereo not given in full) |  | > 100 | > 100 | > 100 | > 100 | > 100 | > 100 |  | > 100 | > 100 |  |  |  |  |  |  |  |  |  | 
NC(N)=N/N=C/c1c(-c2ccc(Cl)c([N+](=O)[O-])c2)nc2ccccn12 |  |  | 3.42 |  | 1.53 | 3.64 | 3.1 | 14.4 | 2.65 | > 100 |  | 1.37 |  | 1.82 |  | 0.122 | 5.82 | > 100 | 1.68 | 1.5
CC(=O)Nc1ccc(-c2nnc(SCC(=O)Nc3ccccc3C)o2)cc1 | > 100 | > 100 | > 100 | > 100 | > 100 | > 100 |  |  |  |  |  |  |  |  |  |  |  |  |  | 
COC(=O)n1c(CBr)c(Br)c2ccccc21 | 34.5 | 94 | 69.9 | 86.4 | > 100 | 76.3 | > 100 |  |  |  |  |  |  |  |  |  |  |  |  | 
O=CN1CCN(C=S)CC1 | > 100 | > 100 | > 100 | > 100 | > 100 | > 100 | > 100 | > 100 |  |  |  |  |  |  |  |  |  |  |  | 
CO/C(=N\N=C\c1cccc(C(F)(F)F)c1)c1ccncc1 | 30.3 | > 100 |  | > 100 | 37.1 |  | 22.5 | 42.8 | > 100 |  | 6.41 |  |  | 7.59 |  |  |  | 5.37 |  | 
COc1ccc2c(c1)CCCC1C3=NCCC3(C)CSC21 (stereo not given) | > 100 | > 100 | > 100 | > 100 | > 100 | > 100 |  |  |  |  |  |  |  |  |  |  |  |  |  | 
Cc1ccc2nc(N/N=C/c3cccc(C)n3)cc(C)c2c1 | 39.8 | 30.4 | 31.6 | 29.8 | 38.3 |  | 27.6 | 37.6 | 37.2 | 48 |  |  |  |  |  |  |  |  |  | 
CN(C)S(=O)(=O)c1ccc(Nc2ccc(O)c3c2C(=O)c2c([N+](=O)[O-])ccc(O)c2C3=O)cc1 | > 100 | > 100 | > 100 | > 100 |  | > 100 |  | > 100 | > 100 | > 100 |  |  |  |  |  |  |  |  |  | 
